Assays:
[1] = target: T1, Type-2 angiotensin II receptor (Rattus norvegicus, UniProt P35351)
T1 sequence (P35351 whole entry): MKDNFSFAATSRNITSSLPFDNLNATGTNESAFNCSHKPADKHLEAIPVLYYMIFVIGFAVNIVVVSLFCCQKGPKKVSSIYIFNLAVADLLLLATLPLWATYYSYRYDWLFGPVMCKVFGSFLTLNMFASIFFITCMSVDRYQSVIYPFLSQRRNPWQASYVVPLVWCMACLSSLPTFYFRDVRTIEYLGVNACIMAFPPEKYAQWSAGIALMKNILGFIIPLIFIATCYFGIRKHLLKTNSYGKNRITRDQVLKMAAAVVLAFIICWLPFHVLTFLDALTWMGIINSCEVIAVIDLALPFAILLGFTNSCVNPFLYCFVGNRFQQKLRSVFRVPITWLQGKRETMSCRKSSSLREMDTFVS

[2] = target: T2, Type-1 angiotensin II receptor A (Rattus norvegicus, UniProt P25095)
T2 sequence (P25095 whole entry): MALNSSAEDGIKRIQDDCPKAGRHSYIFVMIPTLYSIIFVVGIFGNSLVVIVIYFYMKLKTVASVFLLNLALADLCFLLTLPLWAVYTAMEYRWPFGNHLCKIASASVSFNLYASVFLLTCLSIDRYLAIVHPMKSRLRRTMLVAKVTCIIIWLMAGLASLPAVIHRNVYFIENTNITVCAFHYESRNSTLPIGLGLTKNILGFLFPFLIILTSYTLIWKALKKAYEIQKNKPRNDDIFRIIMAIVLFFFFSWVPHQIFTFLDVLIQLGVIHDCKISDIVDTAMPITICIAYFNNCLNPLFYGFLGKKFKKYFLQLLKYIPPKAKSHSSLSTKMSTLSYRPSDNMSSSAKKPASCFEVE

Ki [1]	Ki [2]	Structure (SMILES)
> 10 µM	–	CCCc1nc(-n2cccc2C(=O)C(F)(F)F)c(C(=O)O)n1Cc1ccc(-c2ccccc2-c2nn[nH]n2)cc1
> 10 µM	0.0007 µM	CCc1nc2c(C)cc(C)nc2n1-c1ccc(-c2ccccc2-c2nnn[nH]2)cc1 [CAS_123856]
> 10 µM	–	CCCCc1ncc(/C=C(\Cc2cccs2)C(=O)O)n1Cc1ccc(C(=O)O)cc1 [(E)-3-[2-n-butyl-1-{(4-carboxyphenyl)methyl}-1H-imidazol-5-yl]-2-(2-thienyl)methyl-2-propenoic acid]

From BindingDB's records for PubMed 7891350 (Parke-Davis Pharmaceutical Research, 1995)
